Test systems include SN12C; SK-MEL-2; UO-31; ACHN; DU-145; HCC 2998; A498; SR; IGROV-1; SK-MEL-28; M14; T47D; RPMI-8226; HOP-62; K562; SK-MEL-5; PC-3; SF-295; Malme-3M; CCRF-CEM.
Test in all cases: DTP human tumour cell line panel, 48 h

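Five compound concentrations were applied to cells in 96-well plates for 48 hours; endpoints were derived by simple linear interpolation of the resulting dose-response curve. Here, GI50 denotes the concentration required for 50% inhibition of growth.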 Active and inactive are the calls of the source. Rule as the data show it: active = GI50 up to about 1.1 µM and inactive = higher.

For `O=C(c1ccccc1)c1ccc(N2C(=O)/C(=C/c3cccc([N+](=O)[O-])c3)N=C2c2ccccc2)c(N2C(=O)/C(=C/c3cccc([N+](=O)[O-])c3)N=C2c2ccccc2)c1`, the GI50 (in general, the concentration at which growth is held to half of that of the control) in the assay on SN12C is 98.4 µM (inactive); in the assay with SK-MEL-2 it was 26.4 µM (inactive); with UO-31, 66.7 µM (inactive); with ACHN it was 53.2 µM (inactive); in the assay with DU-145, 51.9 µM (inactive); in the assay on HCC 2998, 15 µM (inactive). The GI50 was 19.3 µM (inactive) with A498; 23.4 µM (inactive) in the assay on SR; 32.4 µM (inactive) in the assay with IGROV-1; 78.3 µM (inactive) with SK-MEL-28; 14.4 µM (inactive) in the assay on M14; 24 µM (inactive) in the assay on T47D. The GI50 was 12.8 µM (inactive) in the assay on RPMI-8226; 75.3 µM (inactive) in the assay on HOP-62; 31.7 µM (inactive) with K562; 2.34 µM (inactive) with SK-MEL-5; 27.3 µM (inactive) in the assay with PC-3; 16.2 µM (inactive) in the assay on SF-295.

For the compound `Cc1ccnc(NS(=O)(=O)c2ccc(NC(=O)c3ccc4nc5ccccc5c(Nc5ccc(S(=O)(=O)Nc6nccc(C)n6)cc5)c4c3)cc2)n1`, the GI50 in the assay with SN12C is 60.3 µM (inactive); in the assay on SK-MEL-2, 16 µM (inactive); with UO-31 it was > 100 µM (inactive); with ACHN it was > 100 µM (inactive); in the assay with DU-145, > 100 µM (inactive); in the assay on HCC 2998, 37.2 µM (inactive). Further, the GI50 with SR is 21.9 µM (inactive); in the assay on IGROV-1, 63.1 µM (inactive); in the assay on Malme-3M, 78.5 µM (inactive); in the assay with SK-MEL-28, > 100 µM (inactive); with M14, > 100 µM (inactive); in the assay with CCRF-CEM, 42.3 µM (inactive). Further, the GI50 was 30.8 µM (inactive) in the assay with T47D; 57.8 µM (inactive) in the assay with RPMI-8226; > 100 µM (inactive) in the assay with HOP-62; 41.4 µM (inactive) in the assay with K562; 27.7 µM (inactive) in the assay on SK-MEL-5; > 100 µM (inactive) in the assay on PC-3. Also, in the assay with SF-295, the GI50 was > 100 µM (inactive).

Consider `Cc1[nH]c2[nH]c(=S)nc(NC(N)=S)c2c1Cc1ccccc1`, for which the GI50 is > 100 µM (inactive) in the assay on SN12C; 93.1 µM (inactive) in the assay on SK-MEL-2; 22.8 µM (inactive) with UO-31; > 100 µM (inactive) in the assay on ACHN; 49.5 µM (inactive) in the assay on DU-145; > 100 µM (inactive) with A498. The GI50 in the assay with SR was 11.5 µM (inactive); in the assay with IGROV-1 it was 59 µM (inactive); in the assay with SK-MEL-28 it was 21.9 µM (inactive); in the assay with M14, 42.3 µM (inactive); with CCRF-CEM, 21.9 µM (inactive); in the assay on T47D, 21.8 µM (inactive). Moreover, the GI50 in the assay on RPMI-8226 was 12.7 µM (inactive); in the assay with HOP-62, 47 µM (inactive); with K562, 25.9 µM (inactive); in the assay on SK-MEL-5, 13.4 µM (inactive); in the assay on PC-3 it was 47 µM (inactive); with SF-295, 35.2 µM (inactive).

For `CC(=O)OCCCCN1C(=O)CSc2ccccc21`, the GI50 in the assay on SN12C is > 100 µM (inactive); with SK-MEL-2, > 100 µM (inactive); with UO-31, 76.7 µM (inactive); in the assay on ACHN, > 100 µM (inactive); in the assay with DU-145 it was > 100 µM (inactive); in the assay with A498 it was > 100 µM (inactive). The GI50 in the assay with SR, with IGROV-1, in the assay on SK-MEL-28, with CCRF-CEM, in the assay with T47D and with RPMI-8226 was > 100 µM (inactive) in each case. Also, the GI50 was > 100 µM (inactive) with HOP-62, 66.5 µM (inactive) with SK-MEL-5, > 100 µM (inactive) in the assay with PC-3 and > 100 µM (inactive) in the assay on SF-295.

As for `COc1cc(C2=C(C)[C@@H]3CN(CC=C3c3ccc(Cl)cc3)C2)c(S(=O)(=O)O)cc1OC`, the GI50 in the assay on SN12C, in the assay on SK-MEL-2, in the assay with UO-31, in the assay with ACHN, in the assay with DU-145 and in the assay on SR was > 100 µM (inactive) each time. The GI50 in the assay with IGROV-1, in the assay with Malme-3M, in the assay on SK-MEL-28, in the assay on M14, in the assay on CCRF-CEM and with T47D was > 100 µM (inactive) in each case. The GI50 with RPMI-8226, with HOP-62, with K562, in the assay on SK-MEL-5, in the assay with PC-3 and in the assay with SF-295 was > 100 µM (inactive) each time.

On to `COc1cc2c(cc1OCCCCOc1cc3nc(C)nc(Cl)c3cc1OC)N=C[C@@H]1CCCN1C2=O`, for which the GI50 in the assay with SN12C is 1.93 µM (inactive); in the assay on SK-MEL-2, 1.95 µM (inactive); in the assay with UO-31, 1.88 µM (inactive); in the assay on ACHN, 1.94 µM (inactive); with DU-145 it was 3.22 µM (inactive); in the assay on SR it was 0.57 µM (active). The GI50 was 1.64 µM (inactive) in the assay on IGROV-1; 1.79 µM (inactive) in the assay with Malme-3M; 2.34 µM (inactive) with SK-MEL-28; 1.88 µM (inactive) in the assay with M14; 15.3 µM (inactive) with T47D; 2.67 µM (inactive) with HOP-62. Also, the GI50 is 2.07 µM (inactive) in the assay on K562, 1.77 µM (inactive) in the assay with SK-MEL-5, 3.11 µM (inactive) in the assay with PC-3 and 2.43 µM (inactive) in the assay with SF-295.

With `C=C1C(O)C2(O)OCC34C(CC5C(C)=CC(=O)C(O)C5(C)C23)OC(=O)C(OC(=O)C/C=C(\C)CCCCC)C14` (configuration not stated), the GI50 is 0.0199 µM (active) with SN12C; 0.0251 µM (active) with SK-MEL-2; 0.0787 µM (active) in the assay on UO-31; < 0.001 µM (active) in the assay on ACHN; < 0.001 µM (active) with DU-145; 0.0136 µM (active) in the assay with HCC 2998. Further, the GI50 is 0.0148 µM (active) with A498; < 0.01 µM (active) in the assay with SR; 0.0133 µM (active) in the assay with IGROV-1; 0.0128 µM (active) with SK-MEL-28; < 0.001 µM (active) in the assay with M14; 0.0125 µM (active) in the assay with CCRF-CEM. Moreover, the GI50 in the assay on T47D was < 0.001 µM (active); with RPMI-8226 it was 0.014 µM (active); in the assay on HOP-62, 0.0148 µM (active); in the assay with K562 it was 0.0125 µM (active); in the assay with PC-3, < 0.001 µM (active); in the assay on SF-295, 0.0125 µM (active).

As to `CCOC(=O)[C@@H](Cc1ccc(CCl)cc1)NC(C)=O`, the GI50 in the assay on SN12C is 24 µM (inactive); in the assay on SK-MEL-2 it was 17.1 µM (inactive); in the assay with UO-31, 19.2 µM (inactive); in the assay on ACHN it was 20.5 µM (inactive); in the assay on DU-145, 38.1 µM (inactive); in the assay with HCC 2998 it was 17.7 µM (inactive). Moreover, the GI50 in the assay with SR was 29.4 µM (inactive); in the assay on IGROV-1 it was 23.7 µM (inactive); in the assay on Malme-3M it was 19.2 µM (inactive); in the assay on SK-MEL-28 it was 27.5 µM (inactive); with M14, 24.8 µM (inactive); with CCRF-CEM it was 26.7 µM (inactive). Besides, the GI50 is 26.3 µM (inactive) in the assay on T47D; 22.6 µM (inactive) in the assay with RPMI-8226; 23.9 µM (inactive) with HOP-62; 34.4 µM (inactive) in the assay with K562; 16 µM (inactive) in the assay on SK-MEL-5; 29 µM (inactive) with PC-3. In the assay on SF-295, the GI50 was 32.8 µM (inactive).

`O=C(CC(=O)N1N=C(N(c2ccccc2)c2ccccc2)CC1c1ccccc1)Nc1ccc(Cl)cc1` (configuration not stated): the GI50 with SN12C, in the assay with SK-MEL-2, in the assay with UO-31, with ACHN, with DU-145 and in the assay with HCC 2998 was > 100 µM (inactive) throughout. Further, the GI50 in the assay on SR, in the assay with IGROV-1, in the assay with SK-MEL-28, in the assay on M14, with CCRF-CEM and in the assay on T47D was > 100 µM (inactive) in each case. Besides, the GI50 in the assay with RPMI-8226, in the assay with HOP-62, in the assay on K562, in the assay with SK-MEL-5, in the assay on PC-3 and with SF-295 was > 100 µM (inactive) each time.

`C=C1C(=O)[C@@]23CC[C@@H]4[C@@]5(C)CCC[C@@]4(OC5=O)C2(C)CC[C@]1(OC)C3` (some centres not stated): the GI50 in the assay with SN12C is 1.73 µM (inactive); in the assay with SK-MEL-2, 1.06 µM (active); in the assay on UO-31 it was 1.79 µM (inactive); in the assay on ACHN it was 1.77 µM (inactive); in the assay on DU-145, 4.41 µM (inactive); in the assay on HCC 2998, 0.351 µM (active). The GI50 in the assay on SR was 0.23 µM (active); in the assay on IGROV-1, 1.97 µM (inactive); with SK-MEL-28, 1.65 µM (inactive); in the assay on M14, 1.72 µM (inactive); in the assay on CCRF-CEM it was 0.0605 µM (active); with T47D, 1.39 µM (inactive). Further, the GI50 in the assay on RPMI-8226 is 0.205 µM (active); in the assay on HOP-62, 1.17 µM (inactive); with K562 it was 0.0993 µM (active); in the assay with SK-MEL-5 it was 1.59 µM (inactive); in the assay with PC-3 it was 1.05 µM (active); in the assay on SF-295, 3.4 µM (inactive).

Turning to `Cc1cc2nc(N3C(=O)/C(=C/c4ccc(Cl)cc4)N=C3c3ccccc3)sc2cc1C`, the GI50 in the assay on SN12C was 24 µM (inactive); in the assay with SK-MEL-2, 26.5 µM (inactive); in the assay on UO-31 it was 26.8 µM (inactive); in the assay with ACHN, 37.7 µM (inactive); with DU-145, 50.8 µM (inactive); in the assay with HCC 2998, 24.2 µM (inactive). The GI50 is 32.9 µM (inactive) with A498; 46.5 µM (inactive) in the assay on SR; 14.6 µM (inactive) in the assay on IGROV-1; 55.7 µM (inactive) in the assay on SK-MEL-28; 32.7 µM (inactive) in the assay with M14; 18.1 µM (inactive) in the assay with CCRF-CEM. Moreover, the GI50 in the assay on T47D is 27.5 µM (inactive); in the assay on RPMI-8226 it was 35.9 µM (inactive); with HOP-62, 28.9 µM (inactive); in the assay on K562, 32.4 µM (inactive); in the assay with SK-MEL-5, 16.1 µM (inactive); in the assay on PC-3, 26.5 µM (inactive). Further, the GI50 in the assay on SF-295 was 31.2 µM (inactive).

(Values after ChEMBL document CHEMBL1201862, “PubChem BioAssay data set” (2004).)
